Test results taken from paper PMC2150390, “High-dose cyclosporin with etoposide--toxicity and pharmacokinetic interaction in children with solid tumours” (British Journal of Cancer, 1998).

Assay: Etoposide pharmacokinetics with and without cyclosporin (plasma HPLC, non-compartmental analysis)
Format: in vivo, human
Details: for Clearance Cl+ / Half-life t1/2+ / Area under drug concentration curve AUC+: with cyclosporin; for Clearance Cl+ / Half-life t1/2+ / Area under drug concentration curve AUC+ / Clearance Cl- / Half-life t1/2- / Area under drug concentration curve AUC-: etoposide 150 mg m-2 over 1 hour; for Area under drug concentration curve AUC+ / Area under drug concentration curve AUC-: plasma HPLC, non-compartmental; for Median area under the concentration time curve for etoposide: etoposide 150 mg m-2 i.v.
[1] = Table 3, patient 1, cyclosporin schedule A
[2] = Table 3, patient 1, cyclosporin schedule A, without cyclosporin
[3] = Table 3, patient 2, cyclosporin schedule A
[4] = Table 3, patient 2, cyclosporin schedule A, without cyclosporin
[5] = Table 3, patient 4, cyclosporin schedule A
[6] = Table 3, patient 4, cyclosporin schedule A, without cyclosporin
[7] = Table 3, patient 5, cyclosporin schedule A
[8] = Table 3, patient 5, cyclosporin schedule A, without cyclosporin
[9] = Table 3, patient 6, cyclosporin schedule A
[10] = Table 3, patient 6, cyclosporin schedule A, without cyclosporin
[11] = Table 3, patient 7, cyclosporin schedule A
[12] = Table 3, patient 7, cyclosporin schedule A, without cyclosporin
[13] = Table 3, patient 8, cyclosporin schedule A
[14] = Table 3, patient 8, cyclosporin schedule A, without cyclosporin
[15] = Table 3, patient 9, cyclosporin schedule B
[16] = Table 3, patient 9, cyclosporin schedule B, without cyclosporin
[17] = Table 3, patient 10, cyclosporin schedule B
[18] = Table 3, patient 10, cyclosporin schedule B, without cyclosporin
[19] = Table 3, patient 11, cyclosporin schedule B
[20] = Table 3, patient 11, cyclosporin schedule B, without cyclosporin
[21] = Table 3, patient 13, cyclosporin schedule B
[22] = Table 3, patient 13, cyclosporin schedule B, without cyclosporin
[23] = Table 3, patient 14, cyclosporin schedule A
[24] = Table 3, patient 14, cyclosporin schedule A, without cyclosporin
[25] = Table 3, patient 15, cyclosporin schedule A
[26] = Table 3, patient 15, cyclosporin schedule A, without cyclosporin
[27] = Table 3, patient 17, cyclosporin schedule A
[28] = Table 3, patient 17, cyclosporin schedule A, without cyclosporin
[29] = Table 3, patient 18, cyclosporin schedule A
[30] = Table 3, patient 18, cyclosporin schedule A, without cyclosporin

With `COc1cc([C@@H]2c3cc4c(cc3[C@@H](O[C@@H]3O[C@@H]5CO[C@@H](C)O[C@H]5[C@H](O)[C@H]3O)[C@H]3COC(=O)[C@H]23)OCO4)cc(OC)c1O` [etoposide] the “Mean change in etoposide AUC with cyclosporin” value (15 patients, paired, P < 0.001) was “+89%”, the “Mean change in etoposide clearance with cyclosporin” value (15 patients, paired, P < 0.001) was -48% and the “Clearance Cl+” value [1] was 15.7 mL/min. For the same compound, the “Half-life t1/2+” value [1] was 5.08 h, the “Area under drug concentration curve AUC+” value [1] was 14.6 mg·min/mL and the “Clearance Cl-” value [2] was 28.5 mL/min. The “Half-life t1/2-” value [2] was 3.27 h, the “Area under drug concentration curve AUC-” value [2] was 8.1 mg·min/mL and the “Clearance Cl+” value [3] was 8.6 mL/min. The “Half-life t1/2+” value [3] was 9.28 h, the “Area under drug concentration curve AUC+” value [3] was 26.2 mg·min/mL and the “Clearance Cl-” value [4] was 22.0 mL/min. For the same compound, the “Half-life t1/2-” value [4] was 3.43 h, the “Area under drug concentration curve AUC-” value [4] was 10.2 mg·min/mL and the “Clearance Cl+” value [5] was 18.6 mL/min. The “Half-life t1/2+” value [5] was 5.75 h, the “Area under drug concentration curve AUC+” value [5] was 16.9 mg·min/mL and the “Clearance Cl-” value [6] was 36.5 mL/min. The “Half-life t1/2-” value [6] was 5.08 h, the “Area under drug concentration curve AUC-” value [6] was 8.6 mg·min/mL and the “Clearance Cl+” value [7] was 15.2 mL/min. The “Half-life t1/2+” value [7] was 3.15 h, the “Area under drug concentration curve AUC+” value [7] was 7.9 mg·min/mL and the “Clearance Cl-” value [8] was 30.2 mL/min. For the same compound, the “Half-life t1/2-” value [8] was 2 h, the “Area under drug concentration curve AUC-” value [8] was 3.8 mg·min/mL and the “Clearance Cl+” value [9] was 11.9 mL/min. The “Half-life t1/2+” value [9] was 3.82 h, the “Area under drug concentration curve AUC+” value [9] was 8.8 mg·min/mL and the “Clearance Cl-” value [10] was 15.9 mL/min. The “Half-life t1/2-” value [10] was 2.75 h, the “Area under drug concentration curve AUC-” value [10] was 6.6 mg·min/mL and the “Clearance Cl+” value [11] was 10.8 mL/min. For the same compound, the “Half-life t1/2+” value [11] was 4.72 h, the “Area under drug concentration curve AUC+” value [11] was 10.7 mg·min/mL and the “Clearance Cl-” value [12] was 21.9 mL/min. For the same compound, the “Half-life t1/2-” value [12] was 1.72 h, the “Area under drug concentration curve AUC-” value [12] was 5.3 mg·min/mL and the “Clearance Cl+” value [13] was 9.9 mL/min. For the same compound, the “Half-life t1/2+” value [13] was 6.9 h, the “Area under drug concentration curve AUC+” value [13] was 10.1 mg·min/mL and the “Clearance Cl-” value [14] was 27.2 mL/min. The “Half-life t1/2-” value [14] was 2.05 h, the “Area under drug concentration curve AUC-” value [14] was 3.6 mg·min/mL and the “Clearance Cl+” value [15] was 10.0 mL/min. For the same compound, the “Half-life t1/2+” value [15] was 4.9 h, the “Area under drug concentration curve AUC+” value [15] was 16.4 mg·min/mL and the “Clearance Cl-” value [16] was 25.8 mL/min. For the same compound, the “Half-life t1/2-” value [16] was 3.47 h, the “Area under drug concentration curve AUC-” value [16] was 6.4 mg·min/mL and the “Clearance Cl+” value [17] was 11.6 mL/min. For the same compound, the “Half-life t1/2+” value [17] was 6.93 h, the “Area under drug concentration curve AUC+” value [17] was 14.2 mg·min/mL and the “Clearance Cl-” value [18] was 28.6 mL/min. The “Half-life t1/2-” value [18] was 1.37 h, the “Area under drug concentration curve AUC-” value [18] was 5.8 mg·min/mL and the “Clearance Cl+” value [19] was 16.2 mL/min. The “Half-life t1/2+” value [19] was 5.23 h, the “Area under drug concentration curve AUC+” value [19] was 14.3 mg·min/mL and the “Clearance Cl-” value [20] was 32.5 mL/min. For the same compound, the “Half-life t1/2-” value [20] was 2.93 h, the “Area under drug concentration curve AUC-” value [20] was 7.4 mg·min/mL and the “Clearance Cl+” value [21] was 7.8 mL/min. The “Half-life t1/2+” value [21] was 4.93 h, the “Area under drug concentration curve AUC+” value [21] was 13.1 mg·min/mL and the “Clearance Cl-” value [22] was 15.3 mL/min. For the same compound, the “Half-life t1/2-” value [22] was 2.47 h, the “Area under drug concentration curve AUC-” value [22] was 6.7 mg·min/mL and the “Clearance Cl+” value [23] was 14.3 mL/min. The “Half-life t1/2+” value [23] was 6.68 h, the “Area under drug concentration curve AUC+” value [23] was 15.8 mg·min/mL and the “Clearance Cl-” value [24] was 29.3 mL/min. The “Half-life t1/2-” value [24] was 2.57 h, the “Area under drug concentration curve AUC-” value [24] was 7.7 mg·min/mL and the “Clearance Cl+” value [25] was 22.6 mL/min. For the same compound, the “Half-life t1/2+” value [25] was 6.78 h, the “Area under drug concentration curve AUC+” value [25] was 12.9 mg·min/mL and the “Clearance Cl-” value [26] was 38.1 mL/min. For the same compound, the “Half-life t1/2-” value [26] was 4.3 h, the “Area under drug concentration curve AUC-” value [26] was 7.7 mg·min/mL and the “Clearance Cl+” value [27] was 20.2 mL/min. For the same compound, the “Half-life t1/2+” value [27] was 6.12 h, the “Area under drug concentration curve AUC+” value [27] was 13.4 mg·min/mL and the “Clearance Cl-” value [28] was 29.1 mL/min. The “Half-life t1/2-” value [28] was 3.85 h, the “Area under drug concentration curve AUC-” value [28] was 9.3 mg·min/mL and the “Clearance Cl+” value [29] was 10.1 mL/min. The “Half-life t1/2+” value [29] was 11.4 h, the “Area under drug concentration curve AUC+” value [29] was 21.5 mg·min/mL and the “Clearance Cl-” value [30] was 12.8 mL/min. The “Half-life t1/2-” value [30] was 10.3 h, the “Area under drug concentration curve AUC-” value [30] was 17.1 mg·min/mL and the “Percentage increase in etoposide AUC, mean” value (cyclosporin 3-h infusion) was 106%. For the same compound, the “Percentage increase in etoposide AUC, mean” value (cyclosporin 24-h infusion) was 89%, the “Median area under the concentration time curve for etoposide” value (with high-dose cyclosporin) was 12.5 mg·min/mL and the “Median area under the concentration time curve for etoposide” value (without cyclosporin) was 7.2 mg·min/mL.
